Assay results as given in BigSolDB 2.1.

Compound `CCCCCCCCCCCC[N+](C)(C)CCOc1ccccc1.[Br-]` has a solubility (mole fraction) (in DMAc, 283.15 K) of 0.0168, a solubility (mole fraction) (in DMAc, 288.15 K) of 0.0216 and a solubility (mole fraction) (in DMAc, 293.15 K) of 0.0306. It also gave a solubility (mole fraction) (in DMAc, 298.15 K) of 0.0416, a solubility (mole fraction) (in DMAc, 303.15 K) of 0.0492 and a solubility (mole fraction) (in DMAc, 308.15 K) of 0.0659. The solubility (mole fraction) (in DMAc, 313.15 K) was 0.0786, the solubility (mole fraction) (in DMAc, 318.15 K) was 0.105 and the solubility (mole fraction) (in DMAc, 323.15 K) was 0.121. For the same compound, the solubility (mole fraction) (in DMF, 283.15 K) was 0.0238, the solubility (mole fraction) (in DMF, 288.15 K) was 0.0292 and the solubility (mole fraction) (in DMF, 293.15 K) was 0.039. It also gave a solubility (mole fraction) (in DMF, 298.15 K) of 0.0467, a solubility (mole fraction) (in DMF, 303.15 K) of 0.0609 and a solubility (mole fraction) (in DMF, 308.15 K) of 0.0714. It also gave a solubility (mole fraction) (in DMF, 313.15 K) of 0.0861, a solubility (mole fraction) (in DMF, 318.15 K) of 0.115 and a solubility (mole fraction) (in DMF, 323.15 K) of 0.132. The solubility (mole fraction) (in DMSO, 293.15 K) was 0.037, the solubility (mole fraction) (in DMSO, 298.15 K) was 0.045 and the solubility (mole fraction) (in DMSO, 303.15 K) was 0.0551. The solubility (mole fraction) (in DMSO, 308.15 K) was 0.0668, the solubility (mole fraction) (in DMSO, 313.15 K) was 0.0826 and the solubility (mole fraction) (in DMSO, 318.15 K) was 0.103. It also gave a solubility (mole fraction) (in DMSO, 323.15 K) of 0.124, a solubility (mole fraction) (in NMP, 283.15 K) of 0.0215 and a solubility (mole fraction) (in NMP, 288.15 K) of 0.0284. For the same compound, the solubility (mole fraction) (in NMP, 293.15 K) was 0.042, the solubility (mole fraction) (in NMP, 298.15 K) was 0.0531 and the solubility (mole fraction) (in NMP, 303.15 K) was 0.0702. For the same compound, the solubility (mole fraction) (in NMP, 308.15 K) was 0.0854, the solubility (mole fraction) (in NMP, 313.15 K) was 0.108 and the solubility (mole fraction) (in NMP, 318.15 K) was 0.137. The solubility (mole fraction) (in NMP, 323.15 K) was 0.169, the solubility (mole fraction) (in acetonitrile, 283.15 K) was 0.00445 and the solubility (mole fraction) (in acetonitrile, 288.15 K) was 0.00562. It also gave a solubility (mole fraction) (in acetonitrile, 293.15 K) of 0.00743, a solubility (mole fraction) (in acetonitrile, 298.15 K) of 0.00991 and a solubility (mole fraction) (in acetonitrile, 303.15 K) of 0.0135. For the same compound, the solubility (mole fraction) (in acetonitrile, 308.15 K) was 0.0188, the solubility (mole fraction) (in acetonitrile, 313.15 K) was 0.0277 and the solubility (mole fraction) (in acetonitrile, 318.15 K) was 0.0415. For the same compound, the solubility (mole fraction) (in acetonitrile, 323.15 K) was 0.0625, the solubility (mole fraction) (in ethanol, 283.15 K) was 0.0832 and the solubility (mole fraction) (in ethanol, 288.15 K) was 0.107. It also gave a solubility (mole fraction) (in ethanol, 293.15 K) of 0.13, a solubility (mole fraction) (in ethanol, 298.15 K) of 0.157 and a solubility (mole fraction) (in ethanol, 303.15 K) of 0.179. It also gave a solubility (mole fraction) (in ethanol, 308.15 K) of 0.204, a solubility (mole fraction) (in ethanol, 313.15 K) of 0.227 and a solubility (mole fraction) (in ethanol, 318.15 K) of 0.251. The solubility (mole fraction) (in ethanol, 323.15 K) was 0.275, the solubility (mole fraction) (in isobutanol, 288.15 K) was 0.092 and the solubility (mole fraction) (in isobutanol, 293.15 K) was 0.118. For the same compound, the solubility (mole fraction) (in isobutanol, 298.15 K) was 0.145, the solubility (mole fraction) (in isobutanol, 303.15 K) was 0.175 and the solubility (mole fraction) (in isobutanol, 308.15 K) was 0.196. For the same compound, the solubility (mole fraction) (in isobutanol, 313.15 K) was 0.224, the solubility (mole fraction) (in isobutanol, 318.15 K) was 0.248 and the solubility (mole fraction) (in isobutanol, 323.15 K) was 0.287. The solubility (mole fraction) (in isopropanol, 283.15 K) was 0.0234, the solubility (mole fraction) (in isopropanol, 288.15 K) was 0.043 and the solubility (mole fraction) (in isopropanol, 293.15 K) was 0.07. The solubility (mole fraction) (in isopropanol, 298.15 K) was 0.105, the solubility (mole fraction) (in isopropanol, 303.15 K) was 0.139 and the solubility (mole fraction) (in isopropanol, 308.15 K) was 0.17. It also gave a solubility (mole fraction) (in isopropanol, 313.15 K) of 0.199, a solubility (mole fraction) (in isopropanol, 318.15 K) of 0.228 and a solubility (mole fraction) (in isopropanol, 323.15 K) of 0.258. It also gave a solubility (mole fraction) (in n-butanol, 283.15 K) of 0.0833, a solubility (mole fraction) (in n-butanol, 288.15 K) of 0.108 and a solubility (mole fraction) (in n-butanol, 293.15 K) of 0.134. The solubility (mole fraction) (in n-butanol, 298.15 K) was 0.157, the solubility (mole fraction) (in n-butanol, 303.15 K) was 0.181 and the solubility (mole fraction) (in n-butanol, 308.15 K) was 0.224. The solubility (mole fraction) (in n-butanol, 313.15 K) was 0.263, the solubility (mole fraction) (in n-butanol, 318.15 K) was 0.306 and the solubility (mole fraction) (in n-butanol, 323.15 K) was 0.346. It also gave a solubility (mole fraction) (in n-pentanol, 283.15 K) of 0.0801, a solubility (mole fraction) (in n-pentanol, 288.15 K) of 0.108 and a solubility (mole fraction) (in n-pentanol, 293.15 K) of 0.13. It also gave a solubility (mole fraction) (in n-pentanol, 298.15 K) of 0.164, a solubility (mole fraction) (in n-pentanol, 303.15 K) of 0.192 and a solubility (mole fraction) (in n-pentanol, 308.15 K) of 0.232. For the same compound, the solubility (mole fraction) (in n-pentanol, 313.15 K) was 0.272, the solubility (mole fraction) (in n-pentanol, 318.15 K) was 0.329 and the solubility (mole fraction) (in n-pentanol, 323.15 K) was 0.373. For the same compound, the solubility (mole fraction) (in n-propanol, 283.15 K) was 0.0834, the solubility (mole fraction) (in n-propanol, 288.15 K) was 0.107 and the solubility (mole fraction) (in n-propanol, 293.15 K) was 0.131. It also gave a solubility (mole fraction) (in n-propanol, 298.15 K) of 0.157, a solubility (mole fraction) (in n-propanol, 303.15 K) of 0.181 and a solubility (mole fraction) (in n-propanol, 308.15 K) of 0.211. For the same compound, the solubility (mole fraction) (in n-propanol, 313.15 K) was 0.238, the solubility (mole fraction) (in n-propanol, 318.15 K) was 0.263 and the solubility (mole fraction) (in n-propanol, 323.15 K) was 0.287. The solubility (mole fraction) (in tert-butanol, 298.15 K) was 0.0866, the solubility (mole fraction) (in tert-butanol, 303.15 K) was 0.127 and the solubility (mole fraction) (in tert-butanol, 308.15 K) was 0.165. For the same compound, the solubility (mole fraction) (in tert-butanol, 313.15 K) was 0.198, the solubility (mole fraction) (in tert-butanol, 318.15 K) was 0.241 and the solubility (mole fraction) (in tert-butanol, 323.15 K) was 0.273.
